From patent publication US10088490B2, “Assay for analytes using multiple receptors” (Siemens Healthcare Diagnostics Inc., priority 2010, dated 2018)

How the values were obtained:
Format in all cases: binding
[1] = test system: Antibody L specific for cortisol (clone XM210, IgG2a); test: LOCI competitive cortisol immunoassay, cross-reactivity screening with Biotinylated Antibody L Reagent; conditions: 100% L Biotinylated Antibody; steroid-stripped serum with cortisol (5 ng/dL)
Protocol: (§1) The antibodies were subjected to analytical size exclusion chromatography prior to any manipulations.
(§2) NHS-PEO4-Biotin was dissolved fresh at 10 mg/mL in Antibody Dialysis Buffer. […] The mixture was rocked at 25° C. for exactly 3 hours. A 200 mM solution of glycine was prepared by dissolving 750 mg glycine in Antibody Dialysis Buffer to a total volume of 50 mL. At the end of the 3-hour biotinylation reaction, 1.52 mL of the 200 mM glycine solution was added to the reaction mixture. The quenched reaction mixture was rocked an additional 60 minutes at 25° C.
(§3) The biotinylated antibody was then purified using preparatory HPLC using Antibody Dialysis Buffer as the mobile phase. […] This reagent was designated as the Biotinylated Antibody Reagent.
(§4) The assay used for screening purposes was conducted on the DIMENSION® VISTA® instrument (system) (Siemens Healthcare Diagnostics Inc., Newark Del.). Initially, 20 μL Biotinylated Antibody Reagent with 15 μL system water was added to the vessel. After 22 seconds, 15 μL sample with 15 μL system water were added to the vessel. After almost 4 minutes, 20 μL Chemibead Reagent with 15 μL system water were added to the vessel. Approximately 7 minutes later, 20 μL Sensibead Reagent with 135 μL system water was added to the vessel. The LOCI® read was taken after approximately 5 minutes. The assay from the first reagent addition to the final read took approximately 16 minutes. The contents of the vessel when the final read is taken were as follows: 2 ng/mL Biotinylated Antibody Reagent, 4 μg/mL Chemibead Reagent, 56 μg/mL Sensibead Reagent, and […] sample. The assay is a competitive format, which means that the greater the concentration of analyte in the sample, the smaller is the signal generation. This is because a detectable complex is formed by the Biotinylated Antibody Reagent, Chemibead Reagent, and Sensibead Reagent in the absence of analyte. The presence of analyte decreases the proportion of Biotinylated Antibody Reagent that is free to form detectable complexes.
(§5) Initial testing used Biotinylated Antibody A Reagent with the other reagents and the methodology described above to analyze the steroid-stripped serum with cortisol. The panel of 34 cross-reactants were individually added to the steroid-stripped serum with a defined concentration of cortisol (5 ng/dL) and assayed. Cross-reactivity data were calculated as follows:
(§6) [formula] The same testing was performed using Biotinylated Antibody L Reagent. The compilation of the percent cross-reactivities for the 34 compounds is referred to as the cross-reactivity profile. The apparent cortisol concentration is the cortisol value obtained when testing a sample containing cortisol and the interfering substance by the above test method that also detects the interfering substance to some degree.

[2] = test system: Antibody A specific for cortisol (clone 16DC/17.7, IgG1κ); test: LOCI competitive cortisol immunoassay, cross-reactivity screening with Biotinylated Antibody A Reagent; conditions: 100% A Biotinylated Antibody; steroid-stripped serum with cortisol (5 ng/dL)
Protocol: as §1, §2, §3, §4, §5, §6

[3] = test system: mixture of Biotinylated Antibody A Reagent and Biotinylated Antibody L Reagent; test: LOCI competitive cortisol immunoassay, cross-reactivity with mixtures of Biotinylated Antibody A and L Reagents; conditions: steroid-stripped serum with cortisol
Protocol: as §4, §5, §6
A further study was performed by mixing Biotinylated Antibody A Reagent with Biotinylated Antibody L Reagent in a 50:50 mixture; 80% Biotinylated Antibody A Reagent: 20% Biotinylated Antibody L Reagent; 75% Biotinylated Antibody A Reagent: 25% Biotinylated Antibody L Reagent; and 70% Biotinylated Antibody A Reagent: 30% Biotinylated Antibody L Reagent. […] These reagents were used to test cross-reactivity in stripped serum with cortisol.

[4] = 70% A 30% L Biotinylated Antibody
[5] = 75% A 25% L Biotinylated Antibody
[6] = 80% A 20% L Biotinylated Antibody

| Compound | percent cross reactivity [1] [%] | percent cross reactivity [2] [%] | percent cross reactivity [3, 4] [%] | percent cross reactivity [3, 5] [%] | percent cross reactivity [3, 6] [%] |
| --- | --- | --- | --- | --- | --- |
| C[C@]12CCC(=O)C[C@H]1CC[C@@H]1[C@@H]2[C@@H](O)C[C@@]2(C)[C@H]1CC[C@]2(O)C(=O)CO [5β-dihydrocortisol] | 1.3 | 0.4 | 1.0 | 0.9 | 0.8 |
| C[C@H]1C[C@@H]2[C@H]([C@@H](O)C[C@@]3(C)[C@H]2CC[C@]3(O)C(=O)CO)[C@@]2(C)C=CC(=O)C=C12 [6-methyl-prednisolone] | 10.7 | 6.4 | 8.3 | 7.5 | 7.2 |
| C[C@]12CCC(=O)C=C1[C@H](O)C[C@@H]1[C@@H]2[C@@H](O)C[C@@]2(C)[C@H]1CC[C@]2(O)C(=O)CO [6β-hydroxycortisol] | 100.0 | 2.7 | 6.9 | 6.2 | 5.5 |
| C[C@]12CC[C@H]3[C@@H](CCC4=CC(=O)CC[C@@]43C)[C@@H]1CC[C@@H]2C(=O)CO [11-deoxycorticosterone] | 0.8 | 0.7 | 0.8 | 0.8 | 0.8 |
| C[C@]12CCC(=O)C=C1CC[C@@H]1[C@@H]2CC[C@@]2(C)[C@H]1CC[C@]2(O)C(=O)CO [11-deoxycortisol] | 1.7 | 39.8 | 3.0 | 3.2 | 3.7 |
| C[C@]12CC[C@@H](O)C[C@H]1CC[C@@H]1[C@@H]2C(=O)C[C@]2(C)C(=O)CC[C@@H]12 [11-ketoetiocholanolone] | 0.0 | 0.0 | 0.0 | 0.0 | 0.0 |
| CC(=O)[C@H]1CC[C@H]2[C@@H]3CCC4=CC(=O)CC[C@]4(C)[C@H]3[C@@H](O)C[C@]12C [11β-hydroxyprogesterone] | 0.7 | 0.6 | 0.7 | 0.7 | 0.6 |
| CC(=O)[C@@]1(O)CC[C@H]2[C@@H]3CCC4=CC(=O)CC[C@]4(C)[C@H]3CC[C@@]21C [17α-hydroxyprogesterone] | 0.9 | 24.1 | 1.6 | 1.8 | 2.1 |
| CC(=O)[C@@]1(O)CC[C@H]2[C@@H]3CC=C4C[C@@H](O)CC[C@]4(C)[C@H]3CC[C@@]21C [17β-hydroxypregnenolone] | 0.1 | 0.1 | 0.1 | 0.1 | 0.1 |
| C[C@]12CCC(=O)C=C1CC[C@@H]1[C@@H]2[C@@H](O)C[C@@]2(C)[C@H]1CC[C@]2(O)[C@@H](O)CO [20α-dihydrocortisol] | 0.9 | 0.4 | 0.7 | 0.6 | 0.6 |
| C[C@]12CCC(=O)C=C1CC[C@@H]1[C@@H]2C(=O)C[C@@]2(C)[C@H]1CC[C@]2(O)[C@@H](O)CO [20α-dihydrocortisone] | 0.2 | 1.5 | 0.4 | 0.5 | 0.5 |
| C[C@]12CCC(=O)C=C1CC[C@@H]1[C@@H]2[C@@H](O)C[C@@]2(C)[C@H]1CC[C@]2(O)[C@H](O)CO [20β-dihydrocortisol] | 2.1 | 0.6 | 1.6 | 1.5 | 1.3 |
